Test results as given in US20090022687A1, “Novel Pharmaceuticals That Use Anti-HLA Antibodies” (Chugai Seiyaku Kabushiki Kaisha, priority 2005, published 2009).

How the values were obtained:
[1] = tested on: myeloma cell line RPMI 8226; assay: Effects of signal transduction inhibitors on cell injury by 2D7-DB; conditions: 60 minutes of pretreatment, 2D7-DB 1 μg/mL
Method: This time, the present inventors further examined the antitumor mechanism of 2D7-DB. First, 60 minutes of pretreatment was performed using various signal transduction inhibitors, and their effects on cell injury of the myeloma cell line RPMI 8226 after 2D7-DB (1 μg/mL) addition were examined (FIG. 6A).

[2] = tested on: myeloma cell line ARH-77; assay: Actin staining, localization of 2D7-DB and actin; assay type: cell-based, human; conditions: ARH-77, 30 minutes of pretreatment with inhibitor 0,1 μM
Method: Furthermore, actin staining of the cells was performed to examine the localization of 2D7-DB (green) and actin (red) (FIG. 6B). […] On the other hand, actin aggregation due to 2D7-DB was not observed in the bone marrow stromal cell line KM102 expressing HLA-A. Thus, actin aggregation effect and cytotoxic activity by 2D7-DB were considered specific to myeloma cells and lymphoid cells, and while 2D7-DB is useful for myeloma and autoimmune diseases, it was considered to have little effect on normal tissues.

[3] = tested on: HLA-A expression in IM-9 cells; assay: Effects of IFNs on HLA-A expression (flow cytometry using 2D7); assay type: cell-based, human; conditions: IFN 100 U/mL for 48 hours
Method: IM-9 cells were treated with IFN-α (100 U/mL) or IFN-γ (100 U/mL) for 48 hours. Cell surface expression of HLA-A was analyzed by flow cytometry using 2D7. The staining properties of IFN-treated cells are shown by tick lines, and those of untreated cells are shown by solid lines. Negative control staining properties are shown by dotted lines. (B) A graph indicating the enhancement of 2D7-DB-mediated cytotoxicity by IFN is shown. IM-9 cells were treated with IFN-α (100 U/mL) or IFN-γ (100 U/mL) for 48 hours, and then cultured with 2D7-DB (0.1 or 1 μg/mL) for 24 hours. Cell viabilities were determined by WST-8 assays.
Since cell surface expression of HLA class I is enhanced by IFN stimulation, effects of IFNs on HLA-A expression and 2D7-DB-mediated cytotoxicity were examined using IM-9 cells. After treating IM-9 cells with IFN-α (100 U/mL, OIF 2,500,000 IU, Otsuka Pharmaceutical) or IFN-γ (100 U/mL, Ogamma 100, Otsuka Pharmaceutical) for 48 hours, flow cytometry was performed. […]
Cell surface expression analysis of HLA class I by flow cytometry was performed as follows using FITC-labeled 2D7 mAb or FITC-labeled anti-HLA-ABC common region mAb (Chemicon, San Diego, Calif.). […] Next, the cells were washed twice with PBS, and analyzed using an EPICS XL flow cytometer (Beckman Coulter, Japan). […] HLA class I expression levels were evaluated as GeoMFI using the CellQuest software (BID Biosciences).

## C=C1[C@@H](C)[C@H]2[C@H](Cc3ccccc3)NC(=O)[C@]23[C@H](OC(C)=O)/C=C/[C@@](C)(O)C(=O)[C@@H](C)C/C=C/[C@H]3[C@@H]1O [cytochalasin D]
[1]; inhibitor 1 μM
  effect on cytotoxicity of 2D7-DB: almost completely suppressed

## C/C1=C/C(=O)O[C@@H]2C[C@@H](CC[C@H](C)/C=C\C=C\CC1)O[C@@](O)([C@@H]1CSC(=O)N1)C2 [latrunculin A]
[1]; inhibitor 0.1 μM
  effect on cytotoxicity of 2D7-DB: almost completely suppressed
[2]
  actin aggregation after 2D7-DB addition: aggregation was not observed

## COC[C@H]1OC(=O)c2coc3c2[C@@]1(C)C1=C(C3=O)[C@@H]2CCC(=O)[C@@]2(C)C[C@H]1OC(C)=O [Wortmannin]
[1]; inhibitor 10 μM
  effect on cytotoxicity of 2D7-DB: did not show effects

B1: IFN-γ: interferon γ, Ogamma 100, Otsuka Pharmaceutical; amino acid sequence SEQ ID NO: 3 (protein, listed as Homo sapiens)
chain: MKYTSYILAFQLCIVLGSLGCYCQDPYVKEAENLKKYFNAGHSDVADNGTLFLGILKNWKEESDRKIMQSQIVSFYFKLFKNFKDDQSIQKSVETIKEDMNVKFFNSNKKKRDDFEKLTNYSVTDLNVQRKAIHELIQVMAELSPAAKTGKRKRSQMLFRGRRASQ
[3]
  HLA-A expression: up-regulated

B2: IFN-α: interferon α, OIF 2,500,000 IU, Otsuka Pharmaceutical; amino acid sequence SEQ ID NO: 1 (protein, listed as Homo sapiens)
chain: MASPFALLMVLVVLSCKSSCSLGCDLPETHSLDNRRTLMLLAQMSRISPSSCLMDRHDFGFPQEEFDGNQFQKAPAISVLHELIQQIFNLFTTKDSSAAWDEDLLDKFCTELYQQLNDLEACVMQEERVGETPLMNADSILAVKKYFRRITLYLTEKKYSPCAWEVVRAEIMRSLSLSTNLQERLRRKE
[3]
  HLA-A expression: up-regulated
